Results: paper PMC11661628, “Cannabis sativa extracts inhibit LDL oxidation and the formation of foam cells in vitro, acting as potential multi-step inhibitors of atherosclerosis development” (PLOS ONE, 2024)
Several values for one entry are separate records, joined by “and”; a condition that tells them apart may be missing. Identical values can stand only once. Like-named read-outs stand apart in the source and are kept apart here.

What was measured:
J774.1 cells [1] = experiment: Quantitation of oxLDL endocytosis (DiI-oxLDL spectrofluorometry); type: cell-based, murine; details: for effect on oxLDL uptake by the cells (dose-response, Fig 4) / ED50: DiI-oxLDL 10 μg mL^-1, 24 h; for effect of Ca2+ chelation on DiI-oxLDL internalized: BAPTA-AM 5–20 μM, EGTA 4 mM (S8 Fig); for ED50: oxLDL internalization, NE non-effective
CB1 = details: cited from earlier work
TRPV1 = details: cited from earlier work
CB2 = details: cited from earlier work
GPR55 = details: cited from earlier work
human TRPV1 = tested on: human TRPV1; set-up: method as in PMID 15615864; details: cited from earlier work
rat TRPV1 = tested on: rat TRPV1; set-up: method as in PMID 15615864; details: cited from earlier work
J774.1 cells [2] = experiment: Cellular toxicity, MTT reduction; details: 24 h; for LD50: MTT viability curves; for effect on cell viability and metabolism (MTT): explored range 3–30 μM
Description: Cell viability was determined by the mitochondrial-dependent reduction of 3-[4,5-dimethylthiazole-2-yl]-2,5-diphenyltetrazolium bromide (MTT, Merck KGaA) to formazan. […] A control condition with vehicle alone (0.2% DMSO) was also added to each experiment. The medium was replaced with DMEM containing MTT (0.1 mg mL^-1) and the cells were incubated at 37° C for 4 h. After removing the media, formazan crystals were dissolved in DMSO, and the absorbance was registered using the Varioskan plate reader at 560 nm. […] Therapeutic indexes (TI) were calculated as the ratios between the […].

LDL = tested on: LDL; set-up: method as in PMID 33123676; details: already described; cited from earlier work
TRPV4 = details: read-out: Ki TRPV4; cited from earlier work
[3] = Fig 5 A-C, antagonist alone 5 µM, 24 h, replicates n=1-3
[4] = S2 Table, ref THC [1–5], CBD [3–6], AEA [2,3,5,8,9], AM251 [5,10–16], AM630 [14,15,17,18], ML184 [22–24], CID16020046 [25], read-out: Ki or IC50, GPR55
[5] = Fig 4, 0.32 µM, 24 h, replicates n=1-3
[6] = Fig 4, 1.59 µM, 24 h, replicates n=1-3
[7] = Fig 4, 3.18 µM, 24 h, replicates n=1-3
[8] = Fig 4, 12.72 µM, 24 h, replicates n=1-3
[9] = Fig 4, 0.28 µM, 24 h, replicates n=1-3
[10] = Fig 4, 1.39 µM, 24 h, replicates n=1-3
[11] = Fig 4, 2.79 µM, 24 h, replicates n=1-3
[12] = Fig 4, 8.37 µM, 24 h, replicates n=1-3
[13] = Fig 4, 13.95 µM, 24 h, replicates n=1-3

SMILES: CCCCC/C=C\C/C=C\C/C=C\C/C=C\CCCC(=O)NCCO [AEA, N-arachidonoylethanolamine]
- effect on oxLDL uptake by the cells (dose-response, Fig 4) (J774.1 cells [1]): unable to prevent the uptake of oxLDL
- Ki (CB1): 31 to 252 nM
- Ki (TRPV1): 270 nM

SMILES: Cc1c(C(=O)NN2CCCCC2)nn(-c2ccc(Cl)cc2Cl)c1-c1ccc(I)cc1 [AM251, 1-(2,4-Dichlorophenyl)-5-(4-iodophenyl)-4-methyl-N-1-piperidinyl-1H-pyrazole-3-carboxamide]
- Ki (CB2): 124 nM

SMILES: COc1ccc(C(=O)c2c(C)n(CCN3CCOCC3)c3cc(I)ccc23)cc1 [AM630]
- effect of the antagonist on the inhibition of oxLDL uptake by the extracts (J774.1 cells [1]): unable to counteract the inhibitory effect
- DiI-oxLDL (J774.1 cells [1]; [3]): 5.170 µg/mL and 6.331 µg/mL and 3.777 µg/mL
- µg DiI-oxLDL/mg protein (J774.1 cells [1]; [3]): 10.904 µg DiI-oxLDL/mg protein and 13.538 µg DiI-oxLDL/mg protein and 10.952 µg DiI-oxLDL/mg protein
- Ki (GPR55; [4]): 1500 nM
- Ki (CB2; read-out: Ki CB2): 31 nM

SMILES: CC(C)(C)c1ccc(/C=C/C(=O)Nc2ccc3c(c2)OCCO3)cc1 [AMG9810, 2E-N-(2,3-dihydro-1,4-benzodioxin-6-yl)-3-[4-(1,1-dimethylethyl)phenyl]-2-propenamide]
- effect of the antagonist on DiI-oxLDL uptake (J774.1 cells [1]): significant inhibition of DiI-oxLDL uptake
- IC50 (human TRPV1): 24.5 nM
- IC50 (rat TRPV1): 85.6 nM

SMILES: CC(=O)OCOC(=O)CN(CC(=O)OCOC(C)=O)c1ccccc1OCCOc1ccccc1N(CC(=O)OCOC(C)=O)CC(=O)OCOC(C)=O [BAPTA-2AM]
- effect of Ca2+ chelation on DiI-oxLDL internalized (J774.1 cells [1]; 6 h): very considerable impact

SMILES: C=C(C)[C@@H]1CCC(C)=C[C@H]1c1c(O)cc(CCCCC)cc1O [CBD, cannabidiol]
- effect on oxLDL uptake by the cells (dose-response, Fig 4) (J774.1 cells [1]): inhibited oxLDL endocytosis
- ED50 (J774.1 cells [1]): 25000 ± 5000 nM
- LD50 (J774.1 cells [2]): 23 ± 1 µM
- protection of LDL from oxidation (LDL): lack of protection
- Ki (GPR55; [4]): 354 nM

SMILES: C=C(C)[C@@H]1CCC(C)=C[C@H]1c1c(O)cc(CCCCC)c(C(=O)O)c1O [CBDA, cannabidiolic acid]
- effect on oxLDL uptake by the cells (dose-response, Fig 4) (J774.1 cells [1]): inhibited oxLDL endocytosis
- ED50 (J774.1 cells [1]): 18000 ± 3000 nM
- LD50 (J774.1 cells [2]): > 40 µM
- effect on cell viability and metabolism (MTT) (J774.1 cells [2]): no effect
- protection of LDL from oxidation (LDL): lack of protection
- Ki (CB1): 626 nM
- Ki (CB2): 813 nM

SMILES: Cc1ccc(-c2n[nH]c3c2C(c2cccc(O)c2)N(c2ccc(C(=O)O)cc2)C3=O)cc1 (stereo not drawn) [CID16020046, 4-[4,6-dihydro-4-(3-hydroxyphenyl)-3-(4-methylphenyl)-6-oxopyrrolo[3,4-c]pyrazol-5(1H)-yl]benzoic acid]
- effect of the antagonist on DiI-oxLDL uptake (J774.1 cells [1]): did not affect DiI-oxLDL uptake

SMILES: COc1cc(CNC(=O)CCCCC=CC(C)C)ccc1O [Capsaicin, 8-methyl-N-vanillyl-6-nonenamide]
- increase of DiI-oxLDL uptake (J774.1 cells [1]; agonist 50 μM, 6 h, absence of extracts): ~ 15%

SMILES: O=C(O)CN(CCOCCOCCN(CC(=O)O)CC(=O)O)CC(=O)O [EGTA]
- effect of Ca2+ chelation on DiI-oxLDL internalized (J774.1 cells [1]; 6 h): negligible

SMILES: CC(C)C[C@H](NC(=O)c1cc2ccccc2s1)C(=O)N1CCN(C(=O)[C@H](CO)NS(=O)(=O)c2ccc(Cl)cc2Cl)CC1 [GSK1016790A, N-[(1S)-1-[[4-[(2S)-2-[[(2,4-dichlorophenyl)sulfonyl]amine]-3-hydroxy-1-oxopropyl]-1-piperazinyl]carbonyl]-3-methylbutyl]benzo [b]thiophene-2-carboxamide]
- increase of DiI-oxLDL uptake (J774.1 cells [1]): ~ 30%
- Ki (TRPV4): 5 nM

SMILES: Cc1c(C(=O)Nc2cccc(C(F)(F)F)c2)cc(-c2ccccc2)n1CCCN1CCOCC1 [HC067047, 2-methyl-1-(3-morpholin-4-ylpropyl)-5-phenyl-N -[3-(trifluoromethyl)phenyl]pyrrole-3-carboxamide]
- effect of the antagonist on DiI-oxLDL uptake (J774.1 cells [1]): did not affect DiI-oxLDL uptake
- Ki (TRPV4): 17 to 133 nM

SMILES: Cc1cccc(N2CCN(C(=O)c3cc(S(=O)(=O)N(C)C)ccc3N3CCCC3)CC2)c1C [ML184, 3-[[4-(2,3-dimethylphenyl)-1-piperazinyl]carbonyl]-N,N-dimethyl-4-(1-pyrrolidinyl) benzenesulfonamide]
- DiI-oxLDL (J774.1 cells [1]): 0.641 µg/mL and 0.711 µg/mL and 0.735 µg/mL
- increase of DiI-oxLDL uptake (J774.1 cells [1]): ~ 15%
- µg DiI-oxLDL/mg protein (J774.1 cells [1]): 1.308 µg DiI-oxLDL/mg protein and 1.400 µg DiI-oxLDL/mg protein and 1.366 µg DiI-oxLDL/mg protein
- Ki (GPR55; read-out: Ki GPR55): 260 nM
- Ki (CB1): > 32000 nM
- Ki (CB2): > 32000 nM

SMILES: CCCCCc1cc(O)c2c(c1)OC(C)(C)[C@@H]1CCC(C)=C[C@@H]21 [THC, Δ^9-tetrahydrocannabinol]
- DiI-oxLDL (J774.1 cells [1]): 4.013 µg/mL and 4.084 µg/mL and 4.342 µg/mL
- µg DiI-oxLDL/mg protein (J774.1 cells [1]): 10.0784 µg DiI-oxLDL/mg protein and 9.298 µg DiI-oxLDL/mg protein and 9.028 µg DiI-oxLDL/mg protein
- effect on oxLDL uptake by the cells (dose-response, Fig 4) (J774.1 cells [1]): inhibited oxLDL endocytosis
- DiI-oxLDL (J774.1 cells [1]; [5]): 5.502 µg/mL and 5.314 µg/mL and 5.656 µg/mL
- µg DiI-oxLDL/mg protein (J774.1 cells [1]; [5]): 13.3989 µg DiI-oxLDL/mg protein and 14.1131 µg DiI-oxLDL/mg protein and 13.7901 µg DiI-oxLDL/mg protein
- DiI-oxLDL (J774.1 cells [1]; [6]): 5.307 µg/mL and 5.178 µg/mL and 5.296 µg/mL
- µg DiI-oxLDL/mg protein (J774.1 cells [1]; [6]): 12.9859 µg DiI-oxLDL/mg protein and 12.4983 µg DiI-oxLDL/mg protein and 12.6611 µg DiI-oxLDL/mg protein
- DiI-oxLDL (J774.1 cells [1]; [7]): 4.772 µg/mL and 4.841 µg/mL and 4.891 µg/mL
- µg DiI-oxLDL/mg protein (J774.1 cells [1]; [7]): 12.1912 µg DiI-oxLDL/mg protein and 12.4565 µg DiI-oxLDL/mg protein and 12.6501 µg DiI-oxLDL/mg protein
- DiI-oxLDL (J774.1 cells [1]; [8]): 2.336 µg/mL and 2.309 µg/mL and 2.423 µg/mL
- µg DiI-oxLDL/mg protein (J774.1 cells [1]; [8]): 6.7266 µg DiI-oxLDL/mg protein and 6.397 µg DiI-oxLDL/mg protein and 6.486 µg DiI-oxLDL/mg protein
- ED50 (J774.1 cells [1]): 11000 ± 1000 nM
- LD50 (J774.1 cells [2]): 20 ± 1 µM
- protection of LDL from oxidation (LDL): protection
- Ki (GPR55; [4]): 8 to 8.9 nM

SMILES: CCCCCc1cc2c(c(O)c1C(=O)O)C1C=C(C)CCC1C(C)(C)O2 (stereo not drawn) [THCA, Δ^9-tetrahydrocannabinolic acid]
- effect on oxLDL uptake by the cells (dose-response, Fig 4) (J774.1 cells [1]): inhibited oxLDL endocytosis
- DiI-oxLDL (J774.1 cells [1]; [9]): 5.657 µg/mL and 5.8008 µg/mL and 5.782 µg/mL
- µg DiI-oxLDL/mg protein (J774.1 cells [1]; [9]): 10.7513 µg DiI-oxLDL/mg protein and 10.8025 µg DiI-oxLDL/mg protein and 11.0708 µg DiI-oxLDL/mg protein
- DiI-oxLDL (J774.1 cells [1]; [10]): 5.437 µg/mL and 5.452 µg/mL and 5.506 µg/mL
- µg DiI-oxLDL/mg protein (J774.1 cells [1]; [10]): 9.919 µg DiI-oxLDL/mg protein and 9.956 µg DiI-oxLDL/mg protein and 10.007 µg DiI-oxLDL/mg protein
- DiI-oxLDL (J774.1 cells [1]; [11]): 5.849 µg/mL and 5.071 µg/mL and 5.133 µg/mL
- µg DiI-oxLDL/mg protein (J774.1 cells [1]; [11]): 9.9098 µg DiI-oxLDL/mg protein and 9.139 µg DiI-oxLDL/mg protein and 9.494 µg DiI-oxLDL/mg protein
- DiI-oxLDL (J774.1 cells [1]; [12]): 3.515 µg/mL and 3.542 µg/mL and 3.49 µg/mL
- µg DiI-oxLDL/mg protein (J774.1 cells [1]; [12]): 6.46 µg DiI-oxLDL/mg protein and 6.3952 µg DiI-oxLDL/mg protein and 6.189 µg DiI-oxLDL/mg protein
- DiI-oxLDL (J774.1 cells [1]; [13]): 2.689 µg/mL and 2.817 µg/mL and 2.8328 µg/mL
- µg DiI-oxLDL/mg protein (J774.1 cells [1]; [13]): 4.86 µg DiI-oxLDL/mg protein and 5.27 µg DiI-oxLDL/mg protein and 5.206 µg DiI-oxLDL/mg protein
- ED50 (J774.1 cells [1]): 12000 ± 1000 nM
- effect on cell viability and metabolism (MTT) (J774.1 cells [2]): no effect
- protection of LDL from oxidation (LDL): lack of protection
- Ki (CB1): 1290 nM
- Ki (CB2): 1650 nM
